Measurements from US20260092057A1, “BCL-XL/BCL-2 DEGRADERS AND USES THEREOF” (Kymera Therapeutics, Inc., priority 2022, published 2026).
Like-named read-outs stand apart in the source and are kept apart here.

How the values were obtained:
Assay type in all cases: cell-based
BCL-XL = target: T1, BCL-XL (Homo sapiens, UniProt Q07817); assay: BCL-XL degradation assay in MOLT-4 cells (ELISA, 6 h); conditions: for DC50: read-out: Bcl-xL ELISA in MOLT-4 degradation 6 h: External Abs-DC50
T1 construct: BCL-XL degradation results in MOLT-4 cells for compounds of the invention; endogenous in cells; host or cells: MOLT-4
T1 sequence (Q07817 whole entry): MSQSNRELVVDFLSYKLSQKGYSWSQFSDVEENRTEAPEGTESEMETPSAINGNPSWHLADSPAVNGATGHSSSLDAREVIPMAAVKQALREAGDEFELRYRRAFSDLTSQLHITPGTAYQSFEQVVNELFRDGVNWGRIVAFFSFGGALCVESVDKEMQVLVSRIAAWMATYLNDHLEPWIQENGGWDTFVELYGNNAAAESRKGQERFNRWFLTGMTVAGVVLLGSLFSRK

MOLT-4 cells = assay: CTG (CellTiter-Glo) cell viability assay, MOLT-4; conditions: Homo sapiens, MOLT-4, 72 h, MOLT-4, 3 day; read-out: CTG Cell Viability Assay - MOLT-4 3 day: Average external-IC50
Outline: (§1)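 Viability read by CellTiter-Glo luminescence after 3 days' compound exposure at 37 °C under 5% CO2, with 10,000 cells per well. Dosing was nine 1:3 dilutions starting at 10 µM, DMSO normalized to 0.2%; IC50 values come from three-parameter logistic curve fitting.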

Caki-2 cells = assay: CTG (CellTiter-Glo) cell viability assay, Caki-2; conditions: Caki-2, 3-day, read-out: CTG Chempartner/PHA- Caki-2 3-day: Average external-IC50
Outline: as §1

Row | Dmax (BCL-XL) [%] | DC50 (BCL-XL) [nM] | IC50 (MOLT-4 cells) [nM] | SMILES | IC50 (Caki-2 cells; Homo sapiens, CAKI-2, 72 h) [µM] | IC50 (Caki-2 cells) [µM]
1 | > 75 | < 10 | < 100 | Cc1ncsc1-c1ccc([C@H](C)NC(=O)[C@@H]2C[C@@H](O)CN2C(=O)[C@@H](NC(=O)CCCCCC(=O)N2CCN(CC[C@H](CSc3ccccc3)Nc3ccc(S(=O)(=O)NC(=O)c4ccc(N5CCN([C@@H](O)c6ccccc6-c6ccc(Cl)cc6)CC5)cc4)cc3S(=O)(=O)C(F)(F)F)CC2)C(C)(C)C)cc1 [I-121] | 10 to 30 | –
2 | < 50 | 500 to 1000 | > 3000 | Cc1ncsc1-c1ccc([C@H](C)NC(=O)[C@@H]2C[C@@H](O)CN2C(=O)[C@@H](NC(=O)CCCCCC(=O)N2CCN(CCCN(C)CC[C@H](CSc3ccccc3)Nc3ccc(S(=O)(=O)NC(=O)c4ccc(N5CCC([C@@H](O)c6ccccc6-c6ccc(Cl)cc6)CC5)cc4)cc3S(=O)(=O)C(F)(F)F)CC2)C(C)(C)C)cc1 [I-24] | > 30 | –
3 | > 75 | 10 to 100 | < 100 | Cc1ncsc1-c1ccc([C@H](C)NC(=O)[C@@H]2C[C@@H](O)CN2C(=O)[C@@H](NC(=O)CCCCCC(=O)N2CCN(CC[C@H](CSc3ccccc3)Nc3ccc(S(=O)(=O)NC(=O)c4ccc(N5CCC([C@@H](O)c6ccccc6-c6ccc(Cl)cc6)CC5)cc4)cc3S(=O)(=O)C(F)(F)F)CC2)C(C)(C)C)cc1 [I-28, (2S,4R)-1-((S)-2-(7-(4-((R)-3-((4-(N-(4-(4-((R)-(4′-chloro-[1,1′-biphenyl]-2-yl)(hydroxy)methyl)piperidin-1-yl)benzoyl)sulfamoyl)-2-((trifluoromethyl)sulfonyl)phenyl)amino)-4-(phenylthio)butyl)piperazin-1-yl)-7-oxoheptanamido)-3,3-dimethylbutanoyl)-4-hydroxy-N—((S)-1-(4-(4-methylthiazol-5-yl)phenyl)ethyl)pyrrolidine-2-carboxamide] | 10 to 30 | –
4 | 50 to 75 | 100 to 500 | > 3000 | Cc1ncsc1-c1ccc([C@H](C)NC(=O)[C@@H]2C[C@@H](O)CN2C(=O)[C@@H](NC(=O)CCCCCCCC(=O)Nc2ccc(-c3ccc(Cl)cc3)c(CN3CCN(c4ccc(C(=O)NS(=O)(=O)c5ccc(N[C@H](CCN(C)C)CSc6ccccc6)c([N+](=O)[O-])c5)cc4)CC3)c2)C(C)(C)C)cc1 [I-10] | > 30 | –
5 | < 50 | 500 to 1000 | > 3000 | Cc1ncsc1-c1ccc([C@H](C)NC(=O)[C@@H]2C[C@@H](O)CN2C(=O)[C@@H](NC(=O)CCCCCCC(=O)N2CCN(C(=O)c3ccc(-c4ccc(Cl)cc4)c(CN4CCN(c5ccc(C(=O)NS(=O)(=O)c6ccc(N[C@H](CCN(C)C)CSc7ccccc7)c([N+](=O)[O-])c6)cc5)CC4)c3)CC2)C(C)(C)C)cc1 [I-6] | > 30 | –
6 | > 75 | 10 to 100 | 100 to 1000 | Cc1ncsc1-c1ccc([C@H](C)NC(=O)[C@@H]2C[C@@H](O)CN2C(=O)[C@@H](NC(=O)CCCCC(=O)N2CCN(CC[C@H](CSc3ccccc3)Nc3ccc(S(=O)(=O)NC(=O)c4ccc(N5CCC([C@@H](O)c6ccccc6-c6ccc(Cl)cc6)CC5)cc4)cc3S(=O)(=O)C(F)(F)F)CC2)C(C)(C)C)cc1 [I-109] | > 30 | –
7 | > 75 | 10 to 100 | 100 to 1000 | Cc1ncsc1-c1ccc([C@H](C)NC(=O)[C@@H]2C[C@@H](O)CN2C(=O)[C@@H](NC(=O)CCCCCCC(=O)N2CCN(Cc3ccc(-c4ccc(Cl)cc4)c([C@H](O)C4CCN(c5ccc(C(=O)NS(=O)(=O)c6ccc(N[C@H](CCN(C)CCO)CSc7ccccc7)c(S(=O)(=O)C(F)(F)F)c6)cc5)CC4)c3)CC2)C(C)(C)C)cc1 [I-25] | > 30 | –
8 | 50 to 75 | 10 to 100 | 100 to 1000 | Cc1ncsc1-c1ccc(CNC(=O)[C@@H]2C[C@@H](O)CN2C(=O)[C@@H](NC(=O)CCCCCC(=O)N2CC3(CN(CC[C@H](CSc4ccccc4)Nc4ccc(S(=O)(=O)NC(=O)c5ccc(N6CCN([C@@H](O)c7ccccc7-c7ccc(Cl)cc7)CC6)cc5)cc4S(=O)(=O)C(F)(F)F)C3)C2)C(C)(C)C)cc1 [I-125] | > 30 | –

The next lines start with the compound.

Row | SMILES | Dmax (BCL-XL) [%] | DC50 (BCL-XL) [nM] | IC50 (MOLT-4 cells) [nM] | IC50 (Caki-2 cells; Homo sapiens, CAKI-2, 72 h) [µM] | IC50 (Caki-2 cells) [µM]
9 | C#Cc1ccc([C@H](C)NC(=O)[C@@H]2C[C@@H](O)CN2C(=O)[C@@H](NC(=O)CCCCCC(=O)N2CCN(CC[C@H](CSc3ccccc3)Nc3ccc(S(=O)(=O)NC(=O)c4ccc(N5CCC([C@H](O)c6ccccc6-c6ccc(Cl)cc6)CC5)cc4)cc3S(=O)(=O)C(F)(F)F)CC2)C(C)(C)C)cc1 (single isomer, unassigned) [I-33] | 50 to 75 | 100 to 500 | 1000 to 3000 | > 30 | –
10 | Cc1ncsc1-c1ccc([C@H](C)NC(=O)[C@@H]2C[C@@H](O)CN2C(=O)[C@@H](NC(=O)CCCCCC(=O)N2CCN(CCCNc3ccc(S(=O)(=O)NC(=O)c4ccc(N5CCN(CC6=C(c7ccc(Cl)cc7)CC(C)(C)CC6)CC5Oc5cnc6[nH]ccc6c5)cc4)cc3S(=O)(=O)C(F)(F)F)CC2)C(C)(C)C)cc1 (some centres unmarked) [I-133] | < 50 | 500 to 1000 | 100 to 1000 | > 30 | –
11 | Cc1ncsc1-c1ccc([C@H](C)NC(=O)[C@@H]2C[C@@H](O)CN2C(=O)[C@@H](NC(=O)C2CCN(c3ccc(NC(=O)c4ccc(-c5ccc(Cl)cc5)c([C@H](O)C5CCN(c6ccc(C(=O)NS(=O)(=O)c7ccc(N[C@H](CCN(C)CCO)CSc8ccccc8)c(S(=O)(=O)C(F)(F)F)c7)cc6)CC5)c4)cc3)CC2)C(C)(C)C)cc1 (single isomer, unassigned) [I-27] | < 50 | 500 to 1000 | > 3000 | > 30 | –
12 | Cc1ncsc1-c1ccc(CNC(=O)[C@@H]2C[C@@H](O)CN2C(=O)[C@@H](NC(=O)CCCCCCC(=O)N2CCN(C[C@]3(C)CCC(c4ccc(Cl)cc4)=C(CN4CCN(c5ccc(C(=O)NS(=O)(=O)c6ccc(NCCCN7CCOCC7)c(S(=O)(=O)C(F)(F)F)c6)c(Oc6cnc7[nH]ccc7c6)c5)CC4)C3)CC2)C(C)(C)C)cc1 [I-131] | < 50 | 500 to 1000 | 100 to 1000 | – | > 30
13 | Cc1ncsc1-c1ccc([C@H](C)NC(=O)[C@@H]2C[C@@H](O)CN2C(=O)[C@@H](NC(=O)CCCCCC(=O)N2CCCN(CCCNc3ccc(S(=O)(=O)NC(=O)c4ccc(N5CCN(CC6=C(c7ccc(Cl)cc7)CC(C)(C)CC6)CC5)cc4Oc4cnc5[nH]ccc5c4)cc3S(=O)(=O)C(F)(F)F)CC2)C(C)(C)C)cc1 [I-106] | 50 to 75 | 10 to 100 | < 100 | > 30 | –
14 | Cc1ncsc1-c1ccc([C@H](C)NC(=O)[C@@H]2C[C@@H](O)CN2C(=O)[C@@H](NC(=O)CCCCCC(=O)N2CCN(CCCNc3ccc(S(=O)(=O)NC(=O)c4ccc(N5CCN(CC6=C(c7ccc(Cl)cc7)CC(C)(C)CC6)CC5)cc4Oc4cnc5[nH]ccc5c4)cc3S(=O)(=O)C(F)(F)F)CC2)C(C)(C)C)cc1 [I-22, (2S,4R)-1-((S)-2-(7-(4-(3-((4-(N-(2-((1H-pyrrolo[2,3-b]pyridin-5-yl)oxy)-4-(4-((4′-chloro-5,5-dimethyl-3,4,5,6-tetrahydro-[1,1′-biphenyl]-2-yl)methyl)piperazin-1-yl)benzoyl)sulfamoyl)-2-((trifluoromethyl)sulfonyl)phenyl)amino)propyl)piperazin-1-yl)-7-oxoheptanamido)-3,3-dimethylbutanoyl)-4-hydroxy-N—((S)-1-(4-(4-methylthiazol-5-yl)phenyl)ethyl)pyrrolidine-2-carboxamide] | > 75 | 10 to 100 | 100 to 1000 | 10 to 30 | –
